Assays:
Botrytis cinerea = test: Antifungal activity test (PDA plate, hypha extension inhibition); format: cell-based; details: 1.6 ppm in PDA culture medium
Protocol: (Antifungal Activity Test against Various Pathogenic Fungi) For each of the compounds I-1 to 27 of the present invention and the comparative compounds (a) to (d), (m-1) and (m-3), 20 mg was weighed and dissolved in 2 ml of dimethylsulfoxide, and a double dilution row in 10 steps was prepared by further using dimethylsulfoxide. A 0.6 ml portion of these solutions was each added to 60 ml of a PDA culture medium (potato-dextrose-agar culture medium) at about 60° C., they were well mixed in a 100 ml Erlenmeyer flask, the solution was poured into a schale and was solidified, the plate culture media containing the compounds according to the present invention with final concentrations of 100, 50.0, 25.0, 12.5, 6.3, 3.2, 1.6, 0.8, 0.4 and 0.2 mg/l were prepared. On the other hand, the specimen bacteria cultured on the plate culture media beforehand was punched by a 4 mm diameter cork borer, and was inoculated on the plate culture media containing the aforementioned chemicals. After the inoculation, the bacteria were cultured at the optimum growth temperature of each bacterium for 1 to 7 days (for this optimum growth temperature, LIST OF CULTURES 1996 Microorganisms 10th edition published by Fermentation Research Institute (Foundation) can be referred to.), and the growth of the bacteria was measured by the diameter of a colony. […] R=100(dc−dt)/dc (Equation 3) [wherein each symbol is shown as follows: R=Hypha extension inhibition rate (%), dc=Diameter of colony on no-treated plate, dt=Diameter of colony on chemical-treated plate.] The results obtained above was evaluated in 5 steps in accordance with the following examination scale. <Growth Inhibition> 5: Hypha extension inhibition rate of 90% or more 4: Hypha extension inhibition rate of from 70% to less than 90% 3: […] 2: […] In addition, the abbreviations in Table 10 are as follows: B.c: Botrytis cinerea

wheat powdery mildew = test: Test of control effect on wheat powdery mildew; format: in vivo; set-up: Control Value: scale not given here; details: wettable powder 125 mg/l, 100 liters/10 a, wheat seedlings (Nourin 64), examined 9th to 14th day after inoculation
Protocol: (Test of Control Effect on Wheat Powdery Mildew) Wettable powders were prepared from compounds of the present invention I-1 to I-27 and comparative compounds (a) to (d), (m-1) and (m-3). The obtained wettable powder was diluted and suspended with water to provide the predetermined concentration (125 mg/l), and was sprinkled onto seedlings of wheat (variety: “Nourin 64”) at the first to the second leaf period which were cultivated using square plastic pots (size: 6.4 cm×6.4 cm) in a rate of 100 liters/10 a (ares). After drying the sprinkled leaves with air, a suspension of wheat powdery mildew spores taken from infected leaves was inoculated by spraying onto the sprinkled leaves. They were supervised in a green house (temperature: 20 to 24° C., relative humidity: 20 to 70 RH). On the 9th to 14th day after the inoculation, the infection degree was examined according to the following scale and the control value of each compound was calculated by the following calculation equation 1. [table]

cucumber powdery mildew = test: Test of control effect on cucumber powdery mildew; format: in vivo; details: wettable powder 100 mg/l, 100 liters/10 a, cucumber (Sagamihanpakufushinari), examined 9th to 14th day after inoculation
Protocol: (Test of Control Effect on Cucumber Powdery Mildew) The wettable powders formulated by using each of the compounds I-1 to 27 according to the present invention and the comparative compounds (a) to (d), (m-1) and (m-3) were each diluted and suspended with water to a predetermined concentration (100 mg/l), the suspension was sprinkled over the first to the second leaf period cucumbers (variety: “[…]”) cultivated by using a square plastic pot (size: 6.4 cm×6.4 cm) in a rate of 100 liters/10 a (ares). After the sprinkled leaves were air-dried, the spores were inoculated over the leaves by sprinkling the same with a brush from an infected leaf, a disease was contracted in a glass house (temperature: 20 to 24° C., relative humidity: 20 to 70 RH). On the 9th to 14th day after the inoculation, the infection degree was examined according to the following scale and the control value of each compound was calculated by the following calculation equation 2: (Examination Scale) [table]

Pyrenophora graminea = test: Antifungal activity test (PDA plate, hypha extension inhibition); format: cell-based; details: 12.5 ppm in PDA culture medium
Protocol: (Antifungal Activity Test against Various Pathogenic Fungi) For each of the compounds I-1 to 27 of the present invention and the comparative compounds (a) to (d), (m-1) and (m-3), 20 mg was weighed and dissolved in 2 ml of dimethylsulfoxide, and a double dilution row in 10 steps was prepared by further using dimethylsulfoxide. A 0.6 ml portion of these solutions was each added to 60 ml of a PDA culture medium (potato-dextrose-agar culture medium) at about 60° C., they were well mixed in a 100 ml Erlenmeyer flask, the solution was poured into a schale and was solidified, the plate culture media containing the compounds according to the present invention with final concentrations of 100, 50.0, 25.0, 12.5, 6.3, 3.2, 1.6, 0.8, 0.4 and 0.2 mg/l were prepared. On the other hand, the specimen bacteria cultured on the plate culture media beforehand was punched by a 4 mm diameter cork borer, and was inoculated on the plate culture media containing the aforementioned chemicals. After the inoculation, the bacteria were cultured at the optimum growth temperature of each bacterium for 1 to 7 days (for this optimum growth temperature, LIST OF CULTURES 1996 Microorganisms 10th edition published by Fermentation Research Institute (Foundation) can be referred to.), and the growth of the bacteria was measured by the diameter of a colony. […]

Row | Structure (SMILES) | Growth Inhibition B.c (1.6) (Botrytis cinerea) | Control Value (wheat powdery mildew) | Control Value (cucumber powdery mildew) | Growth Inhibition P.g (12.5) (Pyrenophora graminea)
1 | CC(Cc1ccc(C(F)(F)F)c(F)c1F)CN(C)Cc1ccc(Cl)nc1 (centres unmarked) [Compound I-10] | 5 (Hypha extension inhibition rate of 90% or more) | 100 | 100 | 4 (Hypha extension inhibition rate of from 70% to less than 90%)
2 | CC(Cc1ccc2c(c1)OC(F)(F)O2)CN(C)Cc1ccc(Cl)nc1 (centres unmarked) [Compound I-24] | 4 (Hypha extension inhibition rate of from 70% to less than 90%) | 100 | 100 | 5 (Hypha extension inhibition rate of 90% or more)
